Experiments:
Assay type in all cases: cell-based
hGcgR = hGcgR (Homo sapiens, UniProt P47871); assay: Functional cAMP activation in the presence of 0.1% casein (no HSA); details: in the presence of 0.1% casein (no HSA); geometric mean; read-out: Relative cAMP EC50, hGcgR;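 further: intracellular cAMP rise after 30 min at 37 °C, read by HTRF against a cAMP standard curve, scaled from buffer only (0%) to maximal control ligand response (100%)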
hGIPR [1] = target: T1, hGIPR (Homo sapiens, UniProt P48546); assay: as above; details: in the presence of 0.1% casein (no HSA); geometric mean; read-out: Relative cAMP EC50, hGIPR;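 further: intracellular cAMP rise after 30 min at 37 °C read by HTRF against a standard curve, scaled between buffer alone (0%) and top control ligand concentration (100%), four-parameter fit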
T1 sequence (P48546 22-466): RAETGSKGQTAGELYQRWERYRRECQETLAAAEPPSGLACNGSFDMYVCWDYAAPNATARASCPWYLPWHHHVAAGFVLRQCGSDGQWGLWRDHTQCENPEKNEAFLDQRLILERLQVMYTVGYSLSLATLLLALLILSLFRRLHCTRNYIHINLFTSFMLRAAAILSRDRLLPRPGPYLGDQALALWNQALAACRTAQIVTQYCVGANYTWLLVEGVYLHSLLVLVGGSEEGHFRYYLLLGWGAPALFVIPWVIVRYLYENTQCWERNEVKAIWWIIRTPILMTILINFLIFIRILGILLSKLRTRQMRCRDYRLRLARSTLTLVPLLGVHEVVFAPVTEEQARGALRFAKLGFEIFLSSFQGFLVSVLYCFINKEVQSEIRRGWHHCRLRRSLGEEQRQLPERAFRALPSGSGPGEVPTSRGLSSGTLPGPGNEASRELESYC

hGIPR [2] = target: T1, hGIPR; assay: Functional cAMP activity in the presence of 1% HSA; details: read-out: cAMP Rel EC50, hGIPR
hGLP-1R [3] = target: T2, hGLP-1R (Homo sapiens, UniProt P43220); assay: Functional cAMP activity in the presence of 1% HSA; details: read-out: cAMP Rel EC50, hGLP-1R
T2 sequence (P43220 24-463): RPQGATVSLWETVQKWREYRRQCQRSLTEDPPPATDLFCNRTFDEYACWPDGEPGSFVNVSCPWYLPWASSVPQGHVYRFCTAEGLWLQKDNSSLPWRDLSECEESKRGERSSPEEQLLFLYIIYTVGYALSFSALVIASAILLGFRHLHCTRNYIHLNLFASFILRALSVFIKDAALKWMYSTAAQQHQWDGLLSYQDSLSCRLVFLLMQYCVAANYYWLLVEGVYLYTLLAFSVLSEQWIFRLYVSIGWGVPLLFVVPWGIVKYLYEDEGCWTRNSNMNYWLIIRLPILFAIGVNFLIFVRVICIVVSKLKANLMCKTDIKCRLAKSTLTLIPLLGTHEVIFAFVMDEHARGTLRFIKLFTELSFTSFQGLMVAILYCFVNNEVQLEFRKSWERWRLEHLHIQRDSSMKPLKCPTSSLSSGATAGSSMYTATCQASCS

hGLP-1R [4] = target: T2, hGLP-1R; assay: Functional cAMP activation in the presence of 0.1% casein (no HSA); details: in the presence of 0.1% casein (no HSA); geometric mean; read-out: Relative cAMP EC50, hGLP-1R;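 on Relative cAMP EC50, hGIPR: intracellular cAMP rise after 30 min at 37 °C read by HTRF against a standard curve, scaled between buffer alone (0%) and top control ligand concentration (100%), four-parameter fit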;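 on Relative cAMP EC50, hGLP-1R: intracellular cAMP rise after 30 min at 37 °C read by HTRF, normalized between buffer only (0%) and maximal control ligand (100%), four-parameter variable-slope fit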
human GcgR = human GcgR (Homo sapiens, UniProt P47871); assay: Functional cAMP activity in the presence of 1% HSA; details: read-out: cAMP Rel EC50, hGcgR
Sequence of human GcgR (P47871 26-477): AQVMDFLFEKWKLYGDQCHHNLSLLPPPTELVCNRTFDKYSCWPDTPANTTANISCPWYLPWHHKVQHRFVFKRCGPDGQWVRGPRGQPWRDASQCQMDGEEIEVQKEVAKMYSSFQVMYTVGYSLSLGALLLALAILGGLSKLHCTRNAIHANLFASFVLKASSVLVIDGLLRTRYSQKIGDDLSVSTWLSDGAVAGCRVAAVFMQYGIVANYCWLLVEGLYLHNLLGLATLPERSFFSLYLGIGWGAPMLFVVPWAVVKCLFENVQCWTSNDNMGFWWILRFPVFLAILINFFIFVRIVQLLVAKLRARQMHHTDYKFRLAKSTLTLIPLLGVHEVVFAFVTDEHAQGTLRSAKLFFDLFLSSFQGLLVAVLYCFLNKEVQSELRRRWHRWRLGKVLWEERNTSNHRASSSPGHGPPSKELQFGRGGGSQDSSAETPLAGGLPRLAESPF

Sequence of hGcgR (P47871 26-477): as above

SMILES | EC50 (hGcgR) [nM] | EC50 (hGIPR [1]) [nM] | EC50 (hGIPR [2]) [nM] | EC50 (hGLP-1R [3]) [nM] | EC50 (hGLP-1R [4]) [nM] | EC50 (human GcgR) [nM]
CC[C@H](C)[C@H](NC(=O)[C@H](Cc1ccccc1)NC(=O)[C@H](C)NC(=O)C(C)(C)NC(=O)[C@H](CCC(N)=O)NC(=O)[C@H](C)NC(=O)[C@H](CCCCNC(=O)COCCOCCNC(=O)COCCOCCNC(=O)CC[C@H](NC(=O)CCCCCCCCCCCCCCCCCCC(=O)O)C(=O)O)NC(=O)[C@H](CCCCN)NC(=O)[C@H](CC(=O)O)NC(=O)[C@H](CC(C)C)NC(=O)[C@](C)(CC(C)C)NC(=O)[C@H](CCCN)NC(=O)[C@H](CO)NC(=O)[C@H](Cc1ccccc1)NC(=O)[C@H](CC(=O)O)NC(=O)[C@H](CO)NC(=O)[C@@H](NC(=O)[C@H](Cc1ccccc1)NC(=O)[C@@H](NC(=O)CNC(=O)[C@H](CCC(N)=O)NC(=O)C(C)(C)NC(=O)[C@@H](N)Cc1ccc(O)cc1)[C@@H](C)O)[C@@H](C)O)C(=O)N[C@@H](CCC(=O)O)C(=O)N[C@@H](Cc1ccc(O)cc1)C(=O)N[C@@H](CC(C)C)C(=O)N[C@@H](CC(C)C)C(=O)N[C@@H](CCC(=O)O)C(=O)N[C@H](C)C(=O)NCC(=O)N1CCC[C@H]1C(=O)N[C@@H](CO)C(=O)N[C@@H](CO)C(=O)NCC(=O)N[C@@H](C)C(=O)N1CCC[C@H]1C(=O)N1CCC[C@H]1C(=O)N1CCC[C@H]1C(=O)N[C@@H](CO)C(=O)N[C@@H](CCC(=O)O)C(=O)NCC(N)=O [Example 72] | 5.48 | 0.202 | 56.7 | 683 | 1.86 | 1910
CC[C@H](C)[C@H](NC(=O)[C@H](Cc1ccccc1)NC(=O)[C@H](C)NC(=O)C(C)(C)NC(=O)[C@H](CCC(N)=O)NC(=O)[C@H](C)NC(=O)[C@H](CCCCNC(=O)COCCOCCNC(=O)CC[C@H](NC(=O)CCCCCCCCCCCCCCCCCCC(=O)O)C(=O)O)NC(=O)[C@H](CCCCN)NC(=O)[C@H](CC(=O)O)NC(=O)[C@H](CC(C)C)NC(=O)[C@](C)(CC(C)C)NC(=O)[C@H](CCCN)NC(=O)[C@H](CO)NC(=O)[C@H](Cc1ccccc1)NC(=O)[C@H](CC(=O)O)NC(=O)[C@H](CO)NC(=O)[C@@H](NC(=O)[C@H](Cc1ccccc1)NC(=O)[C@@H](NC(=O)CNC(=O)[C@H](CCC(N)=O)NC(=O)C(C)(C)NC(=O)[C@@H](N)Cc1ccc(O)cc1)[C@@H](C)O)[C@@H](C)O)C(=O)N[C@@H](CCC(=O)O)C(=O)N[C@@H](Cc1c[nH]c2ccccc12)C(=O)N[C@@H](CC(C)C)C(=O)N[C@@H](CC(C)C)C(=O)N[C@@H](CCC(=O)O)C(=O)NCC(=O)NCC(=O)N1CCC[C@H]1C(=O)N[C@@H](CO)C(=O)N[C@@H](CO)C(=O)NCC(=O)N[C@@H](C)C(=O)N1CCC[C@H]1C(=O)N1CCC[C@H]1C(=O)N1CCC[C@H]1C(=O)N[C@@H](CO)C(=O)NCC(=O)N[C@@H](CCC(=O)O)C(N)=O [Example 100] | 13.1 | 0.293 | 77.2 | 1190 | 3.21 | 2390
CC[C@H](C)[C@H](NC(=O)[C@H](Cc1ccccc1)NC(=O)[C@H](C)NC(=O)C(C)(C)NC(=O)[C@H](CCC(N)=O)NC(=O)[C@H](C)NC(=O)[C@H](CCCCNC(=O)COCCOCCNC(=O)CC[C@H](NC(=O)CCCCCCCCCCCCCCCCCCC(=O)O)C(=O)O)NC(=O)[C@H](CCCCN)NC(=O)[C@H](CC(=O)O)NC(=O)[C@H](CC(C)C)NC(=O)[C@](C)(CC(C)C)NC(=O)[C@H](CCCN)NC(=O)[C@H](CO)NC(=O)[C@H](Cc1ccccc1)NC(=O)[C@H](CC(=O)O)NC(=O)[C@H](CO)NC(=O)[C@@H](NC(=O)[C@H](Cc1ccccc1)NC(=O)[C@@H](NC(=O)CNC(=O)[C@H](CCC(N)=O)NC(=O)C(C)(C)NC(=O)[C@@H](N)Cc1ccc(O)cc1)[C@@H](C)O)[C@@H](C)O)C(=O)N[C@@H](CCC(=O)O)C(=O)N[C@@H](Cc1c[nH]c2ccccc12)C(=O)N[C@@H](CC(C)C)C(=O)N[C@@H](CC(C)C)C(=O)N[C@@H](CCC(=O)O)C(=O)NCC(=O)NCC(=O)N1CCC[C@H]1C(=O)N[C@@H](CO)C(=O)N[C@@H](CO)C(=O)NCC(=O)N[C@@H](C)C(=O)N1CCC[C@H]1C(=O)N1CCC[C@H]1C(=O)N1C[C@H](O)C[C@H]1C(=O)N[C@@H](CO)C(=O)NCC(=O)N[C@@H](CCC(=O)O)C(N)=O [Example 105] | 12.5 | 0.269 | 72.5 | 768 | 2.86 | 2790
CC[C@H](C)[C@H](NC(=O)[C@H](Cc1ccccc1)NC(=O)[C@H](C)NC(=O)C(C)(C)NC(=O)[C@H](CCC(N)=O)NC(=O)[C@H](C)NC(=O)[C@H](CCCCNC(=O)COCCOCCNC(=O)COCCOCCNC(=O)CC[C@H](NC(=O)CCCCCCCCCCCCCCCCC(=O)O)C(=O)O)NC(=O)[C@H](CCCCN)NC(=O)[C@H](CC(=O)O)NC(=O)[C@H](CC(C)C)NC(=O)[C@](C)(CC(C)C)NC(=O)[C@H](CCCN)NC(=O)[C@H](CO)NC(=O)[C@H](Cc1ccccc1)NC(=O)[C@H](CC(=O)O)NC(=O)[C@H](CO)NC(=O)[C@@H](NC(=O)[C@H](Cc1ccccc1)NC(=O)[C@@H](NC(=O)CNC(=O)[C@H](CCC(N)=O)NC(=O)C(C)(C)NC(=O)[C@@H](N)Cc1ccc(O)cc1)[C@@H](C)O)[C@@H](C)O)C(=O)N[C@@H](CCC(=O)O)C(=O)N[C@@H](Cc1ccc(O)cc1)C(=O)N[C@@H](CC(C)C)C(=O)N[C@@H](CC(C)C)C(=O)N[C@@H](CCC(=O)O)C(=O)N[C@H](C)C(=O)NCC(=O)N1CCC[C@H]1C(=O)N[C@@H](CO)C(=O)N[C@@H](CO)C(=O)NCC(=O)N[C@@H](C)C(=O)N1CCC[C@H]1C(=O)N1CCC[C@H]1C(=O)N1CCC[C@H]1C(=O)N[C@@H](CO)C(=O)NCC(=O)N[C@@H](CCC(=O)O)C(N)=O [Example 128] | 6.76 | 0.307 | 24.3 | 679 | 3.5 | 1090
CC[C@H](C)[C@H](NC(=O)[C@H](Cc1ccccc1)NC(=O)[C@H](C)NC(=O)C(C)(C)NC(=O)[C@H](CCC(N)=O)NC(=O)[C@H](C)NC(=O)[C@H](CCCCNC(=O)CC[C@H](NC(=O)CC[C@H](NC(=O)CCCCCCCCCCCCCCCCC(=O)O)C(=O)O)C(=O)O)NC(=O)[C@H](CCCCN)NC(=O)[C@H](CC(=O)O)NC(=O)[C@H](CC(C)C)NC(=O)[C@](C)(CC(C)C)NC(=O)[C@H](CCCN)NC(=O)[C@H](CO)NC(=O)[C@H](Cc1ccccc1)NC(=O)[C@H](CC(=O)O)NC(=O)[C@H](CO)NC(=O)[C@@H](NC(=O)[C@H](Cc1ccccc1)NC(=O)[C@@H](NC(=O)CNC(=O)[C@H](CCC(N)=O)NC(=O)C(C)(C)NC(=O)[C@@H](N)Cc1ccc(O)cc1)[C@@H](C)O)[C@@H](C)O)C(=O)N[C@@H](CCC(=O)O)C(=O)N[C@@H](Cc1ccc(O)cc1)C(=O)N[C@@H](CC(C)C)C(=O)N[C@@H](CC(C)C)C(=O)N[C@@H](CCC(=O)O)C(=O)NCC(=O)NCC(=O)N1CCC[C@H]1C(=O)N[C@@H](CO)C(=O)N[C@@H](CO)C(=O)NCC(=O)N[C@@H](C)C(=O)N1CCC[C@H]1C(=O)N1CCC[C@H]1C(=O)N1CCC[C@H]1C(=O)N[C@@H](CO)C(=O)NCC(=O)N[C@@H](CO)C(N)=O [Example 199] | 5.8 | 0.232 | 41.6 | 1060 | 4.91 | 1000
